Results from patent publication US20260262643A1, “HERBICIDAL BENZOXAZINES” (FMC CORPORATION, priority 2022, published 2026).

What was measured:
[1] = test system: ragweed; assay: Test C preemergence; format: in vivo, Ambrosia artemisiifolia; conditions: 0 to 100 scale (0 no effect, 100 complete control)
In short: (§1)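 Test material, in non-phytotoxic solvent with surfactant, was sprayed on the soil directly after seeding (preemergence) or on young plants of 2–10 cm with one to two leaves (postemergence). Greenhouse, 10 days; 0–100 visual control scale.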

[2] = test system: pigweed, palmer; assay: Test C preemergence; format: in vivo, Amaranthus palmeri; conditions: 0 to 100 scale (0 no effect, 100 complete control)
In short: as §1

[3] = test system: horseweed; assay: Test C postemergence; format: in vivo, Erigeron canadensis; conditions: 10 days
In short: as §1

[4] = test system: ragweed; assay: Test C postemergence; format: in vivo, Ambrosia artemisiifolia; conditions: 10 days
In short: as §1

[5] = test system: ryegrass, Italian; assay: Test C postemergence; format: in vivo, Lolium multiflorum; conditions: 10 days
In short: as §1

[6] = test system: blackgrass; assay: Test C postemergence; format: in vivo, Alopecurus myosuroides; conditions: 10 days
In short: as §1

[7] = test system: ryegrass, Italian; assay: Test C preemergence; format: in vivo, Lolium multiflorum; conditions: 0 to 100 scale (0 no effect, 100 complete control)
In short: as §1

[8] = test system: corn; assay: Test C preemergence; format: in vivo, Zea mays; conditions: 0 to 100 scale (0 no effect, 100 complete control)
In short: as §1

[9] = test system: galium; assay: Test C postemergence; format: in vivo, Galium aparine; conditions: 10 days
In short: as §1

[10] = test system: barnyardgrass; assay: Test C preemergence; format: in vivo, Echinochloa crusgalli; conditions: 0 to 100 scale (0 no effect, 100 complete control)
In short: as §1

[11] = test system: sedge, umbrella; assay: Test D flooded paddy test; format: in vivo, Cyperus difformis; conditions: 250 g ai/ha, applied to paddy water, visual rating after 13 to 14 days, scale 0 to 100 (0 no effect, 100 complete control)
In short: (§2)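 Visual ratings from 0, meaning no effect, to 100, meaning complete control, were assigned against untreated controls 13 to 14 days after compounds were added to the floodwater of pots kept 3 cm deep, with plants at the 2-leaf stage.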

[12] = test system: barnyardgrass; assay: Test D flooded paddy test; format: in vivo, Echinochloa crus-galli; conditions: 250 g ai/ha, applied to paddy water, visual rating after 13 to 14 days, scale 0 to 100 (0 no effect, 100 complete control)
In short: as §2

[13] = test system: pigweed, palmer; assay: Test C postemergence; format: in vivo, Amaranthus palmeri; conditions: 10 days
In short: as §1

[14] = test system: barnyardgrass; assay: Test C postemergence; format: in vivo, Echinochloa crusgalli; conditions: 10 days
In short: as §1

[15] = test system: blackgrass; assay: Test C preemergence; format: in vivo, Alopecurus myosuroides; conditions: 0 to 100 scale (0 no effect, 100 complete control)
In short: as §1

[16] = test system: oat, wild; assay: Test C preemergence; format: in vivo, Avena fatua; conditions: 0 to 100 scale (0 no effect, 100 complete control)
In short: as §1

[17] = test system: oat, wild; assay: Test C postemergence; format: in vivo, Avena fatua; conditions: 10 days
In short: as §1

[18] = test system: kochia; assay: Test C preemergence; format: in vivo, Bassia scoparia; conditions: 0 to 100 scale (0 no effect, 100 complete control)
In short: as §1

[19] = test system: rice; assay: Test D flooded paddy test; format: in vivo, Oryza sativa; conditions: 250 g ai/ha, applied to paddy water, visual rating after 13 to 14 days, scale 0 to 100 (0 no effect, 100 complete control)
In short: as §2

[20] = test system: kochia; assay: Test C postemergence; format: in vivo, Bassia scoparia; conditions: 10 days
In short: as §1

[21] = test system: green foxtail; assay: Test C postemergence; format: in vivo, Setaria viridis; conditions: 10 days
In short: as §1

[22] = test system: ducksalad; assay: Test D flooded paddy test; format: in vivo, Heteranthera limosa; conditions: 250 g ai/ha, applied to paddy water, visual rating after 13 to 14 days, scale 0 to 100 (0 no effect, 100 complete control)
In short: as §2

[23] = test system: soybean; assay: Test C preemergence; format: in vivo, Glycine max; conditions: 0 to 100 scale (0 no effect, 100 complete control)
In short: as §1

[24] = test system: corn; assay: Test C postemergence; format: in vivo, Zea mays; conditions: 10 days
In short: as §1

[25] = test system: green foxtail; assay: Test C preemergence; format: in vivo, Setaria viridis; conditions: 0 to 100 scale (0 no effect, 100 complete control)
In short: as §1

[26] = test system: wheat; assay: Test C preemergence; format: in vivo, Triticum aestivum; conditions: 0 to 100 scale (0 no effect, 100 complete control)
In short: as §1

[27] = test system: soybean; assay: Test C postemergence; format: in vivo, Glycine max; conditions: 10 days
In short: as §1

[28] = test system: wheat; assay: Test C postemergence; format: in vivo, Triticum aestivum; conditions: 10 days
In short: as §1

[29] = Preemergence, 500 g ai/ha, visual rating after 10 days
[30] = Test C, preemergence, 125 g ai/ha
[31] = 125 g ai/ha, postemergence, 0 to 100 scale, 0 no effect, 100 complete control
[32] = Postemergence, 500 g ai/ha, visual 0 to 100 scale (0 no effect, 100 complete control)

Q: With `C[C@H]1CN(C(=O)c2cc(-n3cncn3)cc3c2OCCO3)c2cccc(Cl)c2O1` [Compound 153] as the compound, how does the “Plant response rating, Ragweed” value [1, 29] read?
A: 100

Q: And the “Ragweed plant response rating” value [1, 30]?
A: 80

Q: What about the “Plant response rating, Pigweed, Palmer” value [2, 29] of the same compound?
A: 100

Q: And the “Pigweed, Palmer plant response rating” value [2, 30]?
A: 100

Q: What about the “Plant response rating, Horseweed” value [3, 31] of the same compound?
A: 60

Q: What about the “Plant response rating, Horseweed” value [3, 32] of the same compound?
A: 50

Q: And the “Plant response rating, Ragweed” value [4, 31]?
A: 80

Q: What about the “Plant response rating, Ragweed” value [4, 32] of the same compound?
A: 100

Q: What about the “Plant response rating, Ryegrass, Italian” value [5, 31] of the same compound?
A: 90

Q: And the “Plant response rating, Ryegrass, Italian” value [5, 32]?
A: 100

Q: And the “Plant response rating, Blackgrass” value [6, 31]?
A: 90

Q: And the “Plant response rating, Blackgrass” value [6, 32]?
A: 90

Q: What about the “Plant response rating, Ryegrass, Italian” value [7, 29] of the same compound?
A: 90

Q: And the “Ryegrass, Italian plant response rating” value [7, 30]?
A: 90

Q: What about the “Plant response rating, Corn” value [8, 29] of the same compound?
A: 30

Q: And the “Corn plant response rating” value [8, 30]?
A: 10

Q: What about the “Plant response rating, Galium” value [9, 31] of the same compound?
A: 90

Q: What about the “Plant response rating, Galium” value [9, 32] of the same compound?
A: 100

Q: What about the “Barnyardgrass plant response rating” value ([10]; 125 g ai/ha, preemergence) of the same compound?
A: 80

Q: What about the “Plant response rating, Barnyardgrass” value [10, 29] of the same compound?
A: 100

Q: What about the “Plant response rating, Sedge, Umbrella (Flood)” value [11] of the same compound?
A: 98

Q: And the “Plant response rating, Barnyardgrass (Flood)” value [12]?
A: 35

Q: And the “Plant response rating, Pigweed, Palmer” value [13, 31]?
A: 70

Q: What about the “Plant response rating, Pigweed, Palmer” value [13, 32] of the same compound?
A: 100

Q: And the “Plant response rating, Barnyardgrass” value [14, 31]?
A: 90

Q: And the “Plant response rating, Barnyardgrass” value [14, 32]?
A: 90

Q: What about the “Plant response rating, Blackgrass” value [15, 29] of the same compound?
A: 60

Q: And the “Blackgrass plant response rating” value [15, 30]?
A: 20

Q: And the “Plant response rating, Oat, Wild” value [16, 29]?
A: 80

Q: And the “Oat, Wild plant response rating” value [16, 30]?
A: 40

Q: What about the “Plant response rating, Oat, Wild” value [17, 31] of the same compound?
A: 50

Q: What about the “Plant response rating, Oat, Wild” value [17, 32] of the same compound?
A: 70

Q: What about the “Plant response rating, Kochia” value [18, 29] of the same compound?
A: 60

Q: What about the “Kochia plant response rating” value [18, 30] of the same compound?
A: 0

Q: And the “Plant response rating, Rice (Flood)” value [19]?
A: 15

Q: And the “Plant response rating, Kochia” value [20, 31]?
A: 60

Q: What about the “Plant response rating, Kochia” value [20, 32] of the same compound?
A: 90

Q: And the “Plant response rating, Foxtail, Green” value [21, 31]?
A: 90

Q: And the “Plant response rating, Foxtail, Green” value [21, 32]?
A: 90

Q: And the “Plant response rating, Ducksalad (Flood)” value [22]?
A: 70

Q: And the “Plant response rating, Soybean” value [23, 29]?
A: 100

Q: And the “Soybean plant response rating” value [23, 30]?
A: 100

Q: What about the “Plant response rating, Corn” value [24, 31] of the same compound?
A: 80

Q: And the “Plant response rating, Corn” value [24, 32]?
A: 90

Q: What about the “Plant response rating, Foxtail, Green” value [25, 29] of the same compound?
A: 100

Q: What about the “Foxtail, Green plant response rating” value [25, 30] of the same compound?
A: 100

Q: What about the “Plant response rating, Wheat” value [26, 29] of the same compound?
A: 90

Q: What about the “Wheat plant response rating” value [26, 30] of the same compound?
A: 20

Q: And the “Plant response rating, Soybean” value [27, 31]?
A: 100

Q: And the “Plant response rating, Soybean” value [27, 32]?
A: 100

Q: And the “Plant response rating, Wheat” value [28, 31]?
A: 90

Q: And the “Plant response rating, Wheat” value [28, 32]?
A: 90
